The record followed here is US20170296500A1, “Uses of Chlorogenic Acid in the Preparation of Medicaments for Treatment of Psoriasis” (SICHUAN JIUZHANG BIOLOGICAL SCIENCE AND TECHNOLOGY CO., LTD, priority 2014, published 2017).

Each structure is given as a SMILES string. Like-named read-outs stand apart in the source and are kept apart here.

Series [1] relates to psoriasiform pathological change in aural region of guinea pigs. Put plainly: Pharmacodynamic test, psoriasis vulgaris model induced by 5% propranolol emulsion on guinea pig ears; Baker pathologic scores. The following applies: 14 days; for Pathology of lesional tissue after administration (light microscope): guinea pig ear, HE stain; for Baker scores compared with model group: P<0.01. It counts as in vivo.
From the text: 60 guinea pigs adapted to diet one week before initiation of experimentation, and both ears of guinea pigs were unhaired, and randomly divided into blank group and experimental group, with 12 guinea pigs for blank group and 48 guinea pigs for experimental group. In experimental group, 5% propranolol dinitrate emulsion was evenly applied to bilateral ear back of guinea pigs, while in blank group, blank medium was applied for 14 days, with a thickness of about 1.0 mm for each time and 4 times per day, to induce pathologic change of psoriasis vulgaris-appearing. […] Based on body weight and conditions of establishing model, the remaining 44 guinea pigs were divided into 4 groups using random digits table, i.e. model group, positive group, low-dose group of chlorogenic acid, high-dose group of chlorogenic acid, 11 guinea pigs for each group.
After administrating for 14 days, samples were taken, and 12% chloral hydrate was peritoneally injected at a dose of 0.35 mL/100 g. After anesthesia, blood sample was collected from abdominal aorta, and animals were sacrificed. Both ear tissues of guinea pigs were scissored and fixed in 10% formaldehyde solution. Ear tissues of guinea pigs were taken out, embedded in paraffin, sliced, normally stained with HE, and sealed with neutral gum. Pathological change of ears was observed under optical microscope, investigated and taken a picture in 10×20 vision. Referring to Baker method, pathologic scores of tissues were assessed: the presence of Munro microabscess in corneum layer scores 2.0 point; hyperkeratosis scores 0.5 point; parakeratosis scores 1.0 point; stratum granulosum thinning and disappearing scores 1.0 point; acanthosis scores 1.0 point; skin process extension and tortuous basal lamina are marked 0.5, 1.0, 1.5 according to light, middle, and heavy degrees, respectively; mononuclear cells and polymorphonuclear cells infiltration in dermis is marked 0.5, 1.0, 1.5 according to light, middle, and heavy degrees, respectively; obvious mastoid extrusion scores 0.5 point; telangiectasis in superficial layer of dermis scores 0.5 point.

Details of series [2]: species or system guinea pigs. The following applies: guinea pig, in vivo. The method, then: 0.9% sodium chloride solution was administrated to blank group and model group; Positive drug control group was given suspension of acitretin A capsule at 2.25 mg/kg, and the amount of intragastric administration is all 1 mL/100 g for each time, twice a day; 20 mg/kg chlorogenic acid was administrated to the low-dose group by intramuscular injection, and 40 mg/kg chlorogenic acid was administrated to the high-dose group by intramuscular injection, using a volume of 0.2 ml/10 g, once a day.
Before guinea pigs were sacrificed, blood was drawn via peritoneal cavity, and urea nitrogen and creatinine were detected by enzymic method, while glutamate pyruvate transaminase and glutamic-oxalacetic transaminase were tested using rate method.

Series [3] deals with polymorphonuclear leukocytes (PMN). The series is described as follows: PMN transport into zymosan A-soaked gelatin sponge in peritoneal cavity of mice (psoriasis pustulosa test). It counts as in vivo, Kunmin mice. Here is the method: Kunmin mice were randomly divided into 3 groups. Blank control group: according to body weight, about 0.5 ml of peanut oil was administrated to mice by gavage everyday; for high-dose group of chlorogenic acid (20 mg·kg^−1), chlorogenic acid was administrated to each mouse at a dose of 0.4 ml/20 g by peritoneal injection; for low-dose group of chlorogenic acid (10 mg·kg^−1), chlorogenic acid was administrated to each mouse at a dose of 0.4 ml/20 g by peritoneal injection. Following phasic points were observed, i.e. before administration (day 0), days 1, 2, 4, 6 after administration.
After a piece of sterile gelatin sponge (1 cm^2) was immersed in 0.75% zymosan A for 30 min, it was placed in peritoneal cavity of mice by surgery, and mice received standard diet. 24 hours after surgery, 5 mice of same phasic point were decapitated, and the gelatin sponges were taken out and stored in 0.5 ml cell eluant for culturing 30 min at 37 ° C., respectively. The gelatin sponges were washed with 0.01 mol/LPBS0.5 ml thrice, respectively, and the eluant was collected, passed through 40 μm nylon screen cloth, centrifuged, and the volume was 0.5 ml. Cells in above eluants were counted by automatic blood cell counter, and the amount of polymorphonuclear leukocytes (PMN) was read.

In the case of `COc1cc(C)c(/C=C/C(C)=C/C=C/C(C)=C/C(=O)O)c(C)c1C` [Acitretin A capsule, Acitretin A, reference compound], in series [1] (positive group 2.25 mg/kg intragastric twice a day), the “Pathology of lesional tissue after administration (light microscope)” value is “obvious improvement”. In addition, the “Baker scores compared with model group” value in series [1] (guinea pigs, positive group 2.25 mg/kg intragastric twice a day) is recorded as “significantly different”.
As for `O=C(/C=C/c1ccc(O)c(O)c1)O[C@@H]1C[C@](O)(C(=O)O)C[C@@H](O)[C@H]1O` [chlorogenic acid], the “Pathology of lesional tissue after administration (light microscope)” value in series [1] (chlorogenic group 20 and 40 mg/kg i.m.) is “obvious improvement”. Moreover, the “Baker scores compared with model group” value in series [1] (guinea pigs, 20 and 40 mg/kg intramuscular injection once a day) was “significantly different”. Besides, the “Baker score of low-dose group (20 mg/kg) relative to high-dose group (40 mg/kg)” value in series [1] (guinea pigs, intramuscular injection once a day, not dose-dependent) is given as “superior”. The ALT is on record as 33.40 ± 7.26 u/L in series [2] (20 mg/kg) and 32.30 ± 6.07 u/L in series [2] (40 mg/kg). For the same compound, the results for the AST in series [2] (20 mg/kg) and in series [2] (40 mg/kg) were 29.10 ± 7.29 u/L and 24.80 ± 2.57 u/L, respectively. Besides, the Serum creatinine in series [2] (20 mg/kg) came to 88.33 ± 7.80 µmol/L; in series [2] (40 mg/kg), 87.27 ± 4.67 µmol/L. The Urea nitrogen stood at 4.92 ± 0.63 mmol in series [2] (20 mg/kg) and 4.98 ± 0.71 mmol in series [2] (40 mg/kg). In addition, the “Chemotactic activity of PMN in mice” value in series [3] (10 and 20 mg/kg peritoneal injection) is “significantly reduce”. Besides, the PMN transport numbers in series [3] (high dose group 20 mg/kg peritoneal injection, Day 0 (before administration)) was 7.60 ± 6.07 ×10^9/L; in series [3] (high dose group 20 mg/kg peritoneal injection, Day 1), 1.54 ± 0.26 ×10^9/L; in series [3] (high dose group 20 mg/kg peritoneal injection, Day 2), 1.20 ± 2.14 ×10^9/L; in series [3] (high dose group 20 mg/kg peritoneal injection, Day 4), 1.15 ± 0.89 ×10^9/L; in series [3] (high dose group 20 mg/kg peritoneal injection, Day 6) it was 1.10 ± 1.29 ×10^9/L; in series [3] (low dose group 10 mg/kg peritoneal injection, Day 0 (before administration)) it was 6.98 ± 1.71 ×10^9/L. Besides, the PMN transport numbers in series [3] (low dose group 10 mg/kg peritoneal injection, Day 1) is reported as 4.92 ± 2.63 ×10^9/L; in series [3] (low dose group 10 mg/kg peritoneal injection, Day 2), 2.67 ± 1.33 ×10^9/L; in series [3] (low dose group 10 mg/kg peritoneal injection, Day 4) it was 1.98 ± 0.90 ×10^9/L; in series [3] (low dose group 10 mg/kg peritoneal injection, Day 6) it was 1.62 ± 0.58 ×10^9/L. For the same compound, in series [3] (peritoneal injection), the “Inhibitory action on chemotactic activity of PMN, high dose group (20 mg/kg) compared with low dose group (10 mg/kg)” value is “stronger inhibitory action”.
